In assay [1] the target is T1, human GABAA α2β3γ2 (Homo sapiens, UniProt P18507+P28472+P47869).
T1 construct: expressed in transfected cells; host or cells: CHO-K1 (ATCC, CCL-61), transient electroporation with MaxCyte STX, cryopreserved assay-ready cells
The experiment in a line: cell-based. The assay is classed as cell-based. The protocol: The cDNA of YFP (Genbank accession number AY818378) with H148Q and I152L mutations was inserted into the pcDNA3.1 vector using 5′ BamHI and 3′ NotI sites. Human GABAA subunits α2, β3 and γ2 (Genbank accession numbers; α2 NM_000807, β3 NM_000814, γ2 NM_000816) were inserted into pGen-IRES-neo2 vectors using NotI 5′ and 3′ sites.
CHO-K1 cell line (ATCC, CCL-61) was cultured in Ham's F-12 medium supplemented with 10% fetal bovine serum and incubated at 37°C and 5% CO2. Transient transfection was performed using MaxCyte STX electroporation instrument (MaxCyte, Inc.) with CHO cell line specific electroporation protocol. The cells were split one day prior to electroporation to ensure that cells were in the log phase growth at time of transfection. Cells were harvested with Accutase (PAA Laboratories), pelleted at 250 g for 10 minutes, rinsed with MaxCyte Electroporation Buffer (MaxCyte, Inc.), pelleted again and resuspended in MaxCyte Electroporation Buffer at a density of 1×10^8 cells/ml. CHO-K1 cells were electroporated simultaneously with four plasmids using a total amount of 300 µg DNA per 1×10^8 cells; YFP-H148Q/I152L (150 µg) and GABAA (72.5 µg α2, […] and 72.5 µg γ2) plasmids. Following electroporation, cells were incubated at 37°C and 5% CO2 for 20 minutes to recover. Cells were then diluted in culture medium and centrifuged 250 g for 10 minutes. Pelleted cells were resuspended to 5–10×10^6 cells/ml in Ham's F12 with 20% fetal bovine serum and 10% DMSO, and cryopreserved using controlled-rate cryo containers (Nalgene, Thermo Scientific). Cryopreserved assay-ready cells were used for all experiments.
Cryopreserved transiently transfected cells were thawed and plated in 384-well poly-D-lysine-coated plates at a density of 15000 cells/well using a Multidrop Combi Reagent Dispenser (Thermo Scientific). After 24 h incubation at 37°C and 5% CO2, cells were washed three times on an ELx405 Select Deep Well Microplate Washer (BioTEK), exchanging 50 µl culture medium with 30 µl HBSS buffer supplemented with 20 mM Hepes. Plates were incubated with buffer for 1 h at 37°C and 5% CO2. Cell plates were assayed on a FLIPR Tetra (Molecular Devices) using excitation filter of 470–495 nm and emission filter of 515–575 nm. Starting with 30 µl buffer in each well, cells were pre-incubated with 10 µl compound for 15 minutes. […] Compounds were initially solubilized to a concentration of 10 mM in DMSO and then diluted in HBSS buffer with 20 mM Hepes. Final DMSO concentration in the assay was 0.02% for modulators and at 1% for Picrotoxin and Bicuculline.
Data at 1–10 s was adjusted to a baseline of 100% and results were then extracted as % quench at 120 s. % quench is defined as (Finit – Ffinal)/Finit*100 where Finit and Ffinal are the initial and final values of fluorescence respectively. […] Curve fits were performed using least-squares fitting routine (GraphPad Prism 5, GraphPad Software Inc.).
The 95% confidence interval was calculated as 2× this standard error. Taking the anti-log converts this to a fold change (ratio) between two EC50 values.

Assay [2] concerns α2β3γ2 ion channel subtype. On the set-up: method as in PMID 19090692. The settings on record: VSD assay; cited from earlier work.
In assay [3] the test system is GABA α2β3γ2. On the set-up: method as in PMID 14680756, PMID 16183706. To be noted: mouse fibroblast L(tk−) cells; cited from earlier work.
[4] abbreviates: 1 µM modulator, p<0.05, difference in pEC50 ≥0.15 significant.

Like-named read-outs stand apart in the source and are kept apart here.

T1 sequence (P47869 29-451): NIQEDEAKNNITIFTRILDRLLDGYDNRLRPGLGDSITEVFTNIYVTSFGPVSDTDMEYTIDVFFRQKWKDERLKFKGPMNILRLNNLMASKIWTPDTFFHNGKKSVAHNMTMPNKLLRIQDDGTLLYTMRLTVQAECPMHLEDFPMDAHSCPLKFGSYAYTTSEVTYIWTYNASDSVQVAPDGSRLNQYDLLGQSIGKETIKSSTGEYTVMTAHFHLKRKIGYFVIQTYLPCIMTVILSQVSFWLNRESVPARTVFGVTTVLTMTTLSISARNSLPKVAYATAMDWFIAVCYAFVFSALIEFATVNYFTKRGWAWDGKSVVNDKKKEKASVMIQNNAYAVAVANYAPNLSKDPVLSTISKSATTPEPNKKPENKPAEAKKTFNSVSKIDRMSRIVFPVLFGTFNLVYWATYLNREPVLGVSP
T1 sequence (P28472 26-473): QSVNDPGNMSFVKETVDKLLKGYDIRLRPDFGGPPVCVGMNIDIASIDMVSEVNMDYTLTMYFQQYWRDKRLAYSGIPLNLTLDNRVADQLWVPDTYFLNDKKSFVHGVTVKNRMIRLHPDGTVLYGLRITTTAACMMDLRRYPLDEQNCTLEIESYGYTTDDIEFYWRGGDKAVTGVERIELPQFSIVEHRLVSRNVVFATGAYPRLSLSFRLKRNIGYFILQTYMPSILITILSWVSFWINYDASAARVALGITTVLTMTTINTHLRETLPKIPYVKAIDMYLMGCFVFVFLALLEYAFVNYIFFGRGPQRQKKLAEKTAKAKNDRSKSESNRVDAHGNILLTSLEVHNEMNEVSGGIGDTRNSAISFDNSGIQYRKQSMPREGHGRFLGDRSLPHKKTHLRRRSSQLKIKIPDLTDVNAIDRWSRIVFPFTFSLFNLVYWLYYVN
T1 sequence (P18507 40-467 isoform P18507-1 limits assumed): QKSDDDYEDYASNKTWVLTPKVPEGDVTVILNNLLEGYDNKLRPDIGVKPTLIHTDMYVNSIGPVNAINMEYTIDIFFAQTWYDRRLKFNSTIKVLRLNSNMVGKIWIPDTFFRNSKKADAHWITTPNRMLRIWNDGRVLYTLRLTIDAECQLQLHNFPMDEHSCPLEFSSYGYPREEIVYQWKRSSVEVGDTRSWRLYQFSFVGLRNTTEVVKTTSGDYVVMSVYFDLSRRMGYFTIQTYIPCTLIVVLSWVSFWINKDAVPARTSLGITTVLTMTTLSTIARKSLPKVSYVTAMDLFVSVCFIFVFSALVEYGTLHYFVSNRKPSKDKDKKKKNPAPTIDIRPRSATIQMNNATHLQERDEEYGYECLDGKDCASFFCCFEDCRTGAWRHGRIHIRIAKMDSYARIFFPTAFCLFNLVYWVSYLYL

`CCCN(CCC)C(=O)Cc1c(-c2ccc(Cl)cc2)nc2ccc(Cl)cn12` [Alpidem]: the “allosteric effect on GABA” value in assay [1] (1 µM modulator, 95% confidence) was “significant positive allosteric effect”. Further, the “Significance 95% confidence of pEC50 difference vs GABA alone” value in assay [1] (setting [4]) is listed as “Significant difference”.
Turning to `CN1CCc2cc3c(cc2[C@H]1[C@@H]1OC(=O)c2c1ccc1c2OCO1)OCO3` [Bicuculline], in assay [1], the IC50 (as a rule, the concentration that gives 50% inhibition) amounted to 2.14 µM.
Consider `CN1C(=O)CC(=O)N(c2ccccc2)c2cc(Cl)ccc21` [Clobazam], for which the “allosteric effect on GABA” value in assay [1] (1 µM modulator, 95% confidence) is “significant positive allosteric effect”. Further, in assay [1] (setting [4]), the “Significance 95% confidence of pEC50 difference vs GABA alone” value is on record as “Significant difference”.
On to `O=C1CC(=O)N(c2ccccc2)c2cc(Cl)ccc2N1` [Desmethyl-clobazam], for which the “Significance 95% confidence of pEC50 difference vs GABA alone” value in assay [1] (setting [4]) is “non-significant”.
Turning to `CN1C(=O)CN=C(c2ccccc2)c2cc(Cl)ccc21` [Diazepam], in assay [2], the “pEC50 difference (GABA with modulator vs GABA alone)” value is 0.41. In assay [1], the “GABA EC50 shift” value is recorded as 1.7 fold, the “Significance 95% confidence of pEC50 difference vs GABA alone” value is on record as “Significant difference”, the “allosteric effect on GABA” value was “significant positive allosteric effect” and the “modulation of GABA EC20 quench” value was “significant increase”.
For the molecule `Cn1ncnc1COc1nn2c(-c3cc(F)ccc3F)nnc2cc1C(C)(C)C` [L-838417], the “modulation of GABA signal” value in assay [2] is “detected modulation of GABA signal”. Besides, the “relative in vitro efficacy, potentiation of GABA EC20 compared to 100% response from chlordiazepoxide” value in assay [3] was 34%. Further, the “allosteric effect on GABA” value in assay [1] (1 µM modulator, 95% confidence) is listed as “not able to detect any significant allosteric modulation”. Besides, the “Significance 95% confidence of pEC50 difference vs GABA alone” value in assay [1] (setting [4]) is “non-significant”.
For the molecule `O=C1Nc2ccc(Cl)cc2C(c2ccccc2Cl)=NC1O` (centres unmarked) [Lorazepam], the “allosteric effect on GABA” value in assay [1] (1 µM modulator, 95% confidence) is recorded as “significant positive allosteric effect”. For the same molecule, the “Significance 95% confidence of pEC50 difference vs GABA alone” value in assay [1] (setting [4]) was “Significant difference”.
With `CCn1ncnc1COc1nn2c(-c3ccccc3F)nnc2cc1C(C)(C)C` [TPA-023, 7-(1,1-dimethylethyl)-6-(2-ethyl-2H-1,2,4-triazol-3-ylmethoxy)-3-(2-fluorophenyl)-1,2,4-triazolo z[4,3-b]pyridazine], the “relative in vitro efficacy, potentiation of GABA EC20 compared to 100% response from chlordiazepoxide” value in assay [3] is 11%. Further, in assay [1] (1 µM modulator, 95% confidence), the “allosteric effect on GABA” value was “not able to detect any significant allosteric modulation”. Also, in assay [1] (setting [4]), the “Significance 95% confidence of pEC50 difference vs GABA alone” value is “non-significant”. Besides, the “modulation of GABA EC20 quench” value in assay [1] (EC20 of GABA with 1 µM modulator, 10 mM I−) is listed as “No significant change”.
Consider Picrotoxin, for which the “effect on basal (agonist-independent) YFP quench” value in assay [1] (100 µM, 15 min prior to buffer with different I− concentrations) was “reduced basal quench to background levels”. In addition, the “effect on YFP quench in cells activated with EC80 of GABA” value in assay [1] (1 mM, EC80 of GABA in 10 mM NaI buffer) is “blocked YFP quench”.

The values are drawn from article PMC3597608, “Yellow Fluorescent Protein-Based Assay to Measure GABAA Channel Activation and Allosteric Modulation in CHO-K1 Cells” (PLoS ONE, 2013).
